Experimental data reported in patent publication US7507727B2, “Substituted quinobenzoxazine analogs and methods of using thereof” (Cylene Pharmaceuticals, Inc., priority 2003, dated 2009).

molecular target: c-Myc template DNA (c-myc quadruplex); assay: Quadruplex binding / stop assay (Taq polymerase arrest, capillary electrophoresis); conditions: read-out: S DATA; Table 1D, stop assay data

Structure (SMILES) | IC50 [nM]
CN1CCCC1CCNC(=O)c1cn2c3c(c(NC(=O)C4CCCNC4)c(F)cc3c1=O)Oc1cc3ccccc3cc1-2 (centres unmarked) [compound 1480] | 1750
CN1CCCC1CCNC(=O)c1cn2c3c(c(NCC4CCNCC4)c(F)cc3c1=O)Oc1cc3ccccc3cc1-2 (centres unmarked) [compound 1481] | 1750
CN1CCCC1CCNC(=O)c1cn2c3c(c(/N=C4\CCCCN4)c(F)cc3c1=O)Oc1cc3ccccc3cc1-2 (centres unmarked) [compound 1482] | 1750
CN1CCCC1CCNC(=O)c1cn2c3c(c(N4CCC(N5CCCCC5)CC4)c(F)cc3c1=O)Oc1cc3ccccc3cc1-2 (centres unmarked) [compound 1483] | 1750
CN1CCCC1CCNC(=O)c1cn2c3c(c(NC4CC(C)(C)N(O)C(C)(C)C4)c(F)cc3c1=O)Oc1cc3ccccc3cc1-2 (centres unmarked) [compound 1484] | 1750
CCOC(=O)N1CCC(Nc2c(F)cc3c(=O)c(C(=O)NCCC4CCCN4C)cn4c3c2Oc2cc3ccccc3cc2-4)CC1 (centres unmarked) [compound 1485] | 1750
CN1CCC(N(C)c2c(F)cc3c(=O)c(C(=O)NCCC4CCCN4C)cn4c3c2Oc2cc3ccccc3cc2-4)CC1 (centres unmarked) [compound 1486] | 1750
CN1CCCC1CCNC(=O)c1cn2c3c(c(N(C)C4CCN(Cc5ccccc5)CC4)c(F)cc3c1=O)Oc1cc3ccccc3cc1-2 (centres unmarked) [compound 1487] | 1750
CN1CCCC1CCNC(=O)c1cn2c3c(c(NCCN4CCCCC4)c(F)cc3c1=O)Oc1cc3ccccc3cc1-2 (centres unmarked) [compound 1488] | 750
CC1CCCCN1CCCNc1c(F)cc2c(=O)c(C(=O)NCCC3CCCN3C)cn3c2c1Oc1cc2ccccc2cc1-3 (centres unmarked) [compound 1489] | 950
CN1CCCC1CCNC(=O)c1cn2c3c(c(NC4CCCNC4)c(F)cc3c1=O)Oc1cc3ccccc3cc1-2 (centres unmarked) [compound 1490] | 750
CN1CCCC1CCNC(=O)c1cn2c3c(c(N4CCC(C#N)(c5ccccc5)CC4)c(F)cc3c1=O)Oc1cc3ccccc3cc1-2 (centres unmarked) [compound 1491] | 1750
CN1CCCC1CCNC(=O)c1cn2c3c(c(N4CCC(N5CCCC5)CC4)c(F)cc3c1=O)Oc1cc3ccccc3cc1-2 (centres unmarked) [compound 1492] | 750
CN1CCCC1CCNC(=O)c1cn2c3c(c(N4CCC(C(N)=O)CC4)c(F)cc3c1=O)Oc1cc3ccccc3cc1-2 (centres unmarked) [compound 1493] | 1750
CN1CCCC1CCNC(=O)c1cn2c3c(c(NC4CN5CCC4CC5)c(F)cc3c1=O)Oc1cc3ccccc3cc1-2 (centres unmarked) [compound 1495] | 750
CN1CCCC1CCNC(=O)c1cn2c3c(c(N4CCC(NC(=O)OC(C)(C)C)CC4)c(F)cc3c1=O)Oc1cc3ccccc3cc1-2 (centres unmarked) [compound 1498] | 1750
CCN(CC)CCCC(C)Nc1c(F)cc2c(=O)c(C(=O)NCCC3CCCN3C)cn3c2c1Oc1cc2ccccc2cc1-3 (centres unmarked) [compound 1499] | 750
CN(C)CCCNc1c(F)cc2c(=O)c(C(=O)NCCC3CCCN3C)cn3c2c1Oc1cc2ccccc2cc1-3 (centres unmarked) [compound 1500] | 750
CC1CCN(CCCNc2c(F)cc3c(=O)c(C(=O)NCCC4CCCN4C)cn4c3c2Oc2cc3ccccc3cc2-4)CC1 (centres unmarked) [compound 1501] | 750
CN1CCCC1CCNC(=O)c1cn2c3c(c(N(C)C4CCNC4)c(F)cc3c1=O)Oc1cc3ccccc3cc1-2 (centres unmarked) [compound 1502] | 750
CN(CCCNc1c(F)cc2c(=O)c(C(=O)NCCC3CCCN3C)cn3c2c1Oc1cc2ccccc2cc1-3)c1ccccc1 (centres unmarked) [compound 1503] | 1750
CN1CCCC1CCNC(=O)c1cn2c3c(c(NCCCCN4CCCC4)c(F)cc3c1=O)Oc1cc3ccccc3cc1-2 (centres unmarked) [compound 1504] | 750

Structure (SMILES) | IC50 [nM]
CN1CCCC1CCNC(=O)c1cn2c3c(c(NC(=O)C4CNCCN4)c(F)cc3c1=O)Oc1cc3ccccc3cc1-2 (centres unmarked) [compound 1505] | > 15000
CN1CCCC1CCNC(=O)c1cn2c3c(c(NCC4CCN(C(=O)OC(C)(C)C)C4)c(F)cc3c1=O)Oc1cc3ccccc3cc1-2 (centres unmarked) [compound 1506] | 750
CN1CCCC1CCNC(=O)c1cn2c3c(c(N4CCC(c5ccccn5)C4)c(F)cc3c1=O)Oc1cc3ccccc3cc1-2 (centres unmarked) [compound 1507] | 750
CN1CCCC1CCNC(=O)c1cn2c3c(c(N4CCC(c5cccnc5)C4)c(F)cc3c1=O)Oc1cc3ccccc3cc1-2 (centres unmarked) [compound 1508] | 750
CN1CCCC1CCNC(=O)c1cn2c3c(c(NCc4ccccc4N4CCCCC4)c(F)cc3c1=O)Oc1cc3ccccc3cc1-2 (centres unmarked) [compound 1509] | > 15000
CN1CCCC1CCNC(=O)c1cn2c3c(c(N(C)C4CCCCNC4)c(F)cc3c1=O)Oc1cc3ccccc3cc1-2 (centres unmarked) [compound 1510] | > 15000
CN1CCCC1CCNC(=O)c1cn2c3c(c(NCc4ccccc4N4CCOCC4)c(F)cc3c1=O)Oc1cc3ccccc3cc1-2 (centres unmarked) [compound 1511] | 1750
CN1CCCC1CCNC(=O)c1cn2c3c(c(N4CCNC(c5cccnc5)C4)c(F)cc3c1=O)Oc1cc3ccccc3cc1-2 (centres unmarked) [compound 1513] | 1750
CN1CCCC1CCNC(=O)c1cn2c3c(c(N4C[C@@H](NC(=O)OC(C)(C)C)[C@H](c5ccccc5)C4)c(F)cc3c1=O)Oc1cc3ccccc3cc1-2 (some centres unmarked) [compound 1514] | > 15000
COC(=O)N[C@H]1CCN(c2c(F)cc3c(=O)c(C(=O)NCCC4CCCN4C)cn4c3c2Oc2cc3ccccc3cc2-4)C1 (some centres unmarked) [compound 1515] | > 15000
O=C(NCCC1CCCN1)c1cn2c3c(c(NCCN4CCCC4)ccc3c1=O)Oc1cc3ccccc3cc1-2 (centres unmarked) [compound 1516] | 1750
CN1CCCC1CCNC(=O)c1cn2c3c(c(NCCN4CCCC4)ccc3c1=O)Oc1cc3ccccc3cc1-2 (centres unmarked) [compound 1517] | 750
O=C(NCCCN1CCOCC1)c1cn2c3c(c(NCCN4CCCC4)ccc3c1=O)Oc1cc3ccccc3cc1-2 [compound 1518] | 1750
CC1(C)CC(NC(=O)c2cn3c4c(c(NCCN5CCCC5)ccc4c2=O)Oc2cc4ccccc4cc2-3)CC(C)(C)N1 [compound 1519] | 750
O=C(NCCN1CCOCC1)c1cn2c3c(c(NCCN4CCCC4)ccc3c1=O)Oc1cc3ccccc3cc1-2 [compound 1521] | 1750
CN1CCCC1CCNc1ccc2c(=O)c(C(=O)NCCN3CCCC3)cn3c2c1Oc1cc2ccccc2cc1-3 (centres unmarked) [compound 1522] | 750
CN1CCCC1CCNC(=O)c1cn2c3c(c(NCCC4CCCN4C)ccc3c1=O)Oc1cc3ccccc3cc1-2 (centres unmarked) [compound 1523] | 750
CN1CCCC1CCNc1ccc2c(=O)c(C(=O)NCCCN3CCOCC3)cn3c2c1Oc1cc2ccccc2cc1-3 (centres unmarked) [compound 1524] | 1750
CN1CCCC1CCNc1ccc2c(=O)c(C(=O)NC3CC(C)(C)NC(C)(C)C3)cn3c2c1Oc1cc2ccccc2cc1-3 (centres unmarked) [compound 1525] | 1750
CN(C)CCCCNC(=O)c1cn2c3c(c(NCCC4CCCN4C)ccc3c1=O)Oc1cc3ccccc3cc1-2 (centres unmarked) [compound 1526] | 750
CN1CCCC1CCNc1ccc2c(=O)c(C(=O)NCCN3CCOCC3)cn3c2c1Oc1cc2ccccc2cc1-3 (centres unmarked) [compound 1527] | 1750
O=C(NCCN1CCCC1)c1cn2c3c(c(NCCCN4CCOCC4)ccc3c1=O)Oc1cc3ccccc3cc1-2 [compound 1528] | 1750

Structure (SMILES) | IC50 [nM]
CN1CCCC1CCNC(=O)c1cn2c3c(c(NCCCN4CCOCC4)ccc3c1=O)Oc1cc3ccccc3cc1-2 (centres unmarked) [compound 1529] | 1750
O=C(NCCCN1CCOCC1)c1cn2c3c(c(NCCCN4CCOCC4)ccc3c1=O)Oc1cc3ccccc3cc1-2 [compound 1530] | > 15000
CC1(C)CC(NC(=O)c2cn3c4c(c(NCCCN5CCOCC5)ccc4c2=O)Oc2cc4ccccc4cc2-3)CC(C)(C)N1 [compound 1531] | > 15000
CN(C)CCCCNC(=O)c1cn2c3c(c(NCCCN4CCOCC4)ccc3c1=O)Oc1cc3ccccc3cc1-2 [compound 1532] | > 15000
O=C(NCCN1CCOCC1)c1cn2c3c(c(NCCCN4CCOCC4)ccc3c1=O)Oc1cc3ccccc3cc1-2 [compound 1533] | > 15000
CC(C)(C)OC(=O)NC1CCN(c2ccc3c(=O)c(C(=O)NCCN4CCCC4)cn4c3c2Oc2cc3ccccc3cc2-4)C1 (centres unmarked) [compound 1534] | > 15000
CN1CCCC1CCNC(=O)c1cn2c3c(c(N4CCC(NC(=O)OC(C)(C)C)C4)ccc3c1=O)Oc1cc3ccccc3cc1-2 (centres unmarked) [compound 1535] | 750
CC(C)(C)OC(=O)NC1CCN(c2ccc3c(=O)c(C(=O)NCCCN4CCOCC4)cn4c3c2Oc2cc3ccccc3cc2-4)C1 (centres unmarked) [compound 1536] | > 15000
CC1(C)CC(NC(=O)c2cn3c4c(c(N5CCC(NC(=O)OC(C)(C)C)C5)ccc4c2=O)Oc2cc4ccccc4cc2-3)CC(C)(C)N1 (centres unmarked) [compound 1537] | 1750
CN(C)CCCCNC(=O)c1cn2c3c(c(N4CCC(NC(=O)OC(C)(C)C)C4)ccc3c1=O)Oc1cc3ccccc3cc1-2 (centres unmarked) [compound 1538] | 1000
CN(C)CCCCNC(=O)c1cn2c3c(c(N4CCC(NC(=O)OC(C)(C)C)C4)ccc3c1=O)Oc1cc3ccccc3cc1-2 (centres unmarked) [compound 1539] | 750
CN(C)CCCCNc1ccc2c(=O)c(C(=O)NCCN3CCCC3)cn3c2c1Oc1cc2ccccc2cc1-3 [compound 1540] | 1000
CN(C)CCCCNc1ccc2c(=O)c(C(=O)NCCC3CCCN3C)cn3c2c1Oc1cc2ccccc2cc1-3 (centres unmarked) [compound 1541] | 1750
CN(C)CCCCNc1ccc2c(=O)c(C(=O)NCCCN3CCOCC3)cn3c2c1Oc1cc2ccccc2cc1-3 [compound 1542] | > 15000
CN(C)CCCCNc1ccc2c(=O)c(C(=O)NC3CC(C)(C)NC(C)(C)C3)cn3c2c1Oc1cc2ccccc2cc1-3 [compound 1543] | 1750
CN(C)CCCCNC(=O)c1cn2c3c(c(NCCCCN(C)C)ccc3c1=O)Oc1cc3ccccc3cc1-2 [compound 1544] | 1750
CN(C)CCCCNc1ccc2c(=O)c(C(=O)NCCN3CCOCC3)cn3c2c1Oc1cc2ccccc2cc1-3 [compound 1545] | 750
O=C(NCCN1CCCC1)c1cn2c3c(c(NCCN4CCOCC4)ccc3c1=O)Oc1cc3ccccc3cc1-2 [compound 1546] | > 15000
CN1CCCC1CCNC(=O)c1cn2c3c(c(NCCN4CCOCC4)ccc3c1=O)Oc1cc3ccccc3cc1-2 (centres unmarked) [compound 1547] | > 15000
O=C(NCCCN1CCOCC1)c1cn2c3c(c(NCCN4CCOCC4)ccc3c1=O)Oc1cc3ccccc3cc1-2 [compound 1548] | > 15000
CC1(C)CC(NC(=O)c2cn3c4c(c(NCCN5CCOCC5)ccc4c2=O)Oc2cc4ccccc4cc2-3)CC(C)(C)N1 [compound 1549] | > 15000
